Source: US20230101768A1, “METHOD TO TREAT MANGANESE TOXICITY AND MANGANESE-INDUCED PA[…] HUMANS” (priority 2021, published 2023)
Where two headings read alike, the source gives them in different places. Starred links: 1 amine or outer side, 2 acyl side, 3 side chain; linkers in the order of their positions; H or OH if unused. Positions of bridges follow the written chain, without caps; N, C: chain ends. Non-standard residues stand in square brackets, D forms with d. Residues, ends and D or L forms follow the SMILES beside them. Chains are numbered I, II in the order given. *: point of attachment. Actinocin(9to1) = Cc1c2oc3c(C)ccc(C(=O)[*:1])c3nc-2c(C(=O)[*:2])c(N)c1=O; NMeV = CN[C@H](C(=O)O)C(C)C; Cbz = O=C(OCc1ccccc1)*; Sar = CNCC(=O)O

What was measured:
VEGF [1] = assay type: cell-based, human; conditions: HepG2 cells, 10 μM LW6 for 1 h then 250 μM manganese for 4 h
Protocol: (§1) Cells were treated with 0 or 250 μM manganese for 4 h, and gene expression was analyzed by qRT-PCR. For each transcript, expression without manganese treatment was normalized to 1. N=4. Data are mean±SE.
(§2) Cell culture. HepG2 cells were grown in Eagle's modified essential medium (MEM; Corning) with 10% fetal bovine serum (Atlanta Biologicals), 100 IU/ml penicillin (Corning), and 100 μg/ml streptomycin (Corning). 293T cells were maintained in Dulbecco's modified essential medium/F12 (Thermo) supplemented with 10% fetal bovine serum, penicillin (100 IU/ml), and streptomycin (100 μg/ml). Human primary hepatocytes were purchased from XenoTech (catalog #HPCH10+) and cultured according to protocols provided by the supplier.
(§3) manganese and drug treatments in cell culture. Cells were treated with indicated levels of manganese as manganeseCl2.4H2O (Fisher). Vehicle for manganese treatment was water. Prolyl hydroxylase inhibitors roxadustat (Caymen), vadadustat, and molidustat (both APE-Bio); the HIFα inhibitor LW6 (Selleckchem); the proteasomal inhibitor MG132 (Sigma); and the transcription inhibitor actinomycin D (Sigma) were dissolved in DMSO. […] Vehicle treatment for all drugs was DMSO.
(§4) Quantitative RT-PCR assays. RNA extraction from HepG2 cells and mouse tissue, reverse transcription to cDNA, and qRT-PCR analyses were performed as described by us previously (47, 50). For analyses of mouse brain samples, a part of the midbrain, including the basal ganglia, was used. Transcript levels were quantified using the ΔΔCT method with 18S (in mice) or TBP (in HepG2 cells) as the internal control, also as described by us previously (47, 50).

SLC30A10 [2] = assay type: cell-based, human; conditions: for SLC30A10 expression after prolyl hydroxylase inhibitor: indicated doses for 16 h or indicated times, no drug normalized to 1
Protocol: as §1, §2, §3, §4

VEGF [3] = assay type: cell-based; conditions: primary human hepatocytes; for VEGF expression after prolyl hydroxylase inhibitor: 20 μM roxadustat or 80 μM vadadustat for 16 h
Protocol: (§5) (A) and (B): qRT-PCR assays in cells treated with or without 10 μM LW6 for 1 h followed by 0 or 250 μM manganese for 4 h (A) or with or without 20 μM roxadustat or 80 μM vadadustat for 16 h (B). […] For (B), expression in the absence of drug treatment was normalized to 1. N=3. Mean±SE. *P<0.05 by t-test (A) or one-way ANOVA and Dunnett's post hoc test for the comparison between no drug and other conditions (B).
as §2, §3, §4

SLC30A10 [4] = assay type: cell-based; conditions: primary human hepatocytes; for SLC30A10 expression after prolyl hydroxylase inhibitor: 20 μM roxadustat or 80 μM vadadustat for 16 h
Protocol: as §5, §2, §3, §4

SLC30A10 promoter = assay type: cell-based, human
Source text: A luciferase reporter plasmid containing the proximal promoter of human SLC30A10 has been previously described and was a gift of Dr. Ruth Valentine (100). The promoter fragment corresponding to bases −679 to +211 relative to the start of transcription was sub-cloned into the Xho1 and SpeI sites of pRRLSIN.cPPTLuciferase.WPRE vector (Addgene, #69251), which is a luciferase vector for lentivirus infections. Deletion mutants were generated using the loop-out modification of the QuikChange protocol.
Lentiviral infections. Stable cells were generated by lentivirus infection essentially as described by us previously (49, 98). Briefly, lentivirus was produced in HEK293T cells by co-transfecting transfer plasmids described above with plasmids coding for a third generation packing system that is routinely used (pRSV-Rev, pRRE, and pCMV-VSVG) (49, 98). Viral supernatants were collected 40-48 h post-transfection. HepG2 cells for infection were plated in a 60 mm dish 24 h before infection so that cells reached a confluence of 30% on the day of infection. Collected viral supernatants were filtered through a 0.45-μm polyvinylidene difluoride filter, and cells were incubated with a 1:2 dilution of viral supernatant containing 5 μg/mL Polybrene (Santa Cruz). […]

C57BL/6J mice [5] = conditions: roxadustat 10 mg/kg daily i.p. with or without manganese in drinking water, 4 weeks, two-way ANOVA
Protocol: (§6) To assay for the protective effect of roxadustat, animals were exposed to roxadustat or vehicle with or without manganese in drinking water from ˜4 weeks of age. Treatment lasted for 4 weeks from initiation. Roxadustat (Selleckchem) was prepared as a 50 mg/ml stock solution in DMSO, then diluted to 1 mg/ml in sterile phosphate buffered saline (PBS), and delivered by daily i.p. injection at 10 mg/kg. Vehicle was 2% DMSO in PBS. For this experiment, drinking water manganese levels were adjusted to 0.138 mg absolute manganese/ml so that animals received ˜30 mg absolute manganese/kg daily. A higher level of manganese was used because exposure was initiated after weaning, which was necessary because daily i.p. injections for roxadustat delivery were not possible in the pre-weaning period.
(§7) Animals were euthanized using carbon dioxide and tissue dissected for qRT-PCR or ICPMS analyses as described by us previously (50).
(§8) Inductively coupled plasma mass spectrometry. Metal measurements using ICP-MS were performed exactly as described by us previously (47, 50, 51, 99).

SLC30A10 [6] = assay type: in vivo, mice; conditions: C57BL/6J mice, roxadustat 10 mg/kg daily i.p. for 4 weeks
Protocol: A well-characterized drinking water-based manganese exposure regimen was used to model human environmental manganese exposure by providing mice with ˜50 mg manganeseCl2.4H2O/kg body weight daily (˜15 mg absolute manganese/kg per day) from birth until 8 weeks of age. This, and related similar, dosing regimens: 1) approximate the increase in manganese exposure in humans consuming well water contaminated with 1.5 mg manganese/L, which is the median well water concentration associated with neurological deficits in children; 2) increase brain manganese levels by ˜2-3 fold, similar to human patients; 3) produce measurable neurobehavioral deficits without overt toxicity; and 4) model exposure to manganese in developmentally-sensitive early-life and adolescent periods (11). Pre-weaning manganese was delivered by pipette directly into the mouth, and post-weaning manganese was delivered in drinking water using procedures described in detail in ref. (11). In brief, pre-weaning dosing was adjusted to each animal's body weight. For this, a stock solution of 69.2 mg absolute manganese/ml prepared in milliQ water was diluted in milliQ water containing 2.5% (wt/vol) of the natural sweetener Stevia (to facilitate intake by pups), and the required manganese amount (0.2 μl manganese stock/g body weight) was delivered in a dose of ˜5-10 μl/animal. For post-weaning exposure, a 27.7 mg absolute manganese/ml stock solution was prepared in water and diluted to 0.069 mg absolute manganese/ml in drinking water, which provided mice with ˜15 mg absolute manganese/kg per day based on a daily water intake of ˜2-5 ml/mouse depending on age.
as §6, §7, §4

HepG2 cells [7] = assay: MTT cell viability assay, manganese-induced cell death; assay type: cell-based, human; conditions: 20 μM roxadustat, 80 μM vadadustat or 20 μM molidustat for 16 h then manganese for 24 h
Protocol: manganese and drug treatments in cell culture. […] Vehicle for manganese treatment was water. […] Vehicle treatment for all drugs was DMSO.
Cell viability assays. These were performed using the 3-(4,5-dimethylthiazol-2-yl)-2,5-diphenyl tetrazolium bromide (MTT) reagent (Sigma) as described by us previously (47, 50).

C57BL/6J mice [8] = tested on: C57BL/6J mice
Protocol: as §6
Open-field assays for neurobehavior assessment. Open-field analyses were performed as described in a recent publication (51).

HIF2α = assay type: cell-based, human; conditions: HepG2 cells, 20 μM roxadustat, 80 μM vadadustat or 20 μM molidustat for 16 h
Protocol: as §3
(§9) Immunoblots. HepG2 cells were cultured in 35 mm dishes, treated with or without manganese, MG132 and/or prolyl hydroxylase inhibitors, and scrapped using 200 μl of RIPA buffer (50 mM Tris-HCl, pH7.4; 150 mM NaCl; 1Mm EDTA; 1% Triton; 0.25% sodium deoxycholate; protease inhibitors cocktail (Thermo A32953)). Whole-cell lysates were prepared by adding loading buffer (50 mM Tris-HCl, pH 7.4; 2% sodium dodecyl sulfate; 10% glycerol, 0.1 M dithiothreitol; 0.01% (weight/volume) bromophenol blue) and boiling the samples for 5 min. Equal volumes of samples were loaded per lane. Further processing was as described by us previously (47). Images were quantified using ImageQuant TL software (GE).
(§10) Antibodies and chemicals. The inventors used the following commercial primary antibodies in this study: rabbit polyclonal anti-HIF1α (Abcam, Ab2185), rabbit polyclonal anti-HIF2α (Novus, NB100-122), rabbit monoclonal anti-HIF1α proline 564 (Cell signaling, 3434S), and mouse monoclonal anti-tubulin (Sigma, T5168). […] Sources of chemicals not provided elsewhere were Thermo Fisher Scientific or Sigma-Aldrich.

HIF1α = assay type: cell-based, human; conditions: HepG2 cells, 20 μM roxadustat, 80 μM vadadustat or 20 μM molidustat for 16 h
Protocol: as §3, §9, §10

HepG2 cells [9] = assay type: cell-based, human
Protocol: as §2, §3, §8

[10] = tested on: prolyl hydroxylated HIF1α; assay type: cell-based, human
Protocol: as §3, §9, §10

[11] = 10 μM LW6 for 1 h then 250 μM manganese for 4 h

COC(=O)c1ccc(O)c(NC(=O)COc2ccc(C34CC5CC(CC(C5)C3)C4)cc2)c1 [LW6, reference compound]
Effect of LW6 on manganese-induced upregulation of VEGF (VEGF [1]): robustly blocked
Effect of LW6 on manganese-induced upregulation of SLC30A10 (SLC30A10 [2]; HepG2 cells, 10 μM LW6 for 1 h then 250 μM manganese for 4 h): robustly blocked
Effect of LW6 on manganese-induced increase of VEGF expression (VEGF [3]; [11]): inhibited
Effect of LW6 on manganese-induced increase of SLC30A10 expression (SLC30A10 [4]; [11]): inhibited
Effect of LW6 on manganese-induced increase in activity of SLC30A10 promoter luciferase reporter (SLC30A10 promoter): abolished

Cc1nc(C(=O)NCC(=O)O)c(O)c2ccc(Oc3ccccc3)cc12 [roxadustat, 2-[(4-hydroxy-1-methyl-7-phenoxyisoquinoline-3-carbonyl)amino]acetic acid]
Brain manganese levels, main effect of roxadustat (C57BL/6J mice [5]): reducing
SLC30A10 expression after prolyl hydroxylase inhibitor (SLC30A10 [2]; HepG2 cells): enhanced
Brain SLC30A10 levels (SLC30A10 [6]): did not impact
Intestinal SLC30A10 levels (SLC30A10 [6]): increased
VEGF expression after prolyl hydroxylase inhibitor (VEGF [3]): increased
SLC30A10 expression after prolyl hydroxylase inhibitor (SLC30A10 [4]): increased
Protection against manganese-induced cell death (HepG2 cells [7]): protected
Open-field activity, roxadustat treatment by itself (C57BL/6J mice [8]; C57BL/6J mice, roxadustat 10 mg/kg daily i.p. for 4 weeks, no manganese): did not impact
Hypo-locomotor phenotype (reduced vertical movement) in mice treated with manganese and roxadustat (C57BL/6J mice [8]; mouse, in vivo): not detected
HIF2α protein levels after prolyl hydroxylase inhibitor (HIF2α): increased
HIF1α protein levels after prolyl hydroxylase inhibitor (HIF1α): increased
Intracellular Fe, Cu, and Zn levels (HepG2 cells [9]): no effect
Intracellular manganese in cells not exposed to manganese (HepG2 cells [9]): did not impact
Intracellular manganese levels under elevated manganese exposure, versus controls (HepG2 cells [9]): significantly lower

O=C(O)CNC(=O)c1ncc(-c2cccc(Cl)c2)cc1O [vadadustat, 2-[[5-(3-chlorophenyl)-3-hydroxypyridine-2-carbonyl]amino]acetic acid]
SLC30A10 expression after prolyl hydroxylase inhibitor (SLC30A10 [2]; HepG2 cells): enhanced
VEGF expression after prolyl hydroxylase inhibitor (VEGF [3]): increased
SLC30A10 expression after prolyl hydroxylase inhibitor (SLC30A10 [4]): increased
Protection against manganese-induced cell death (HepG2 cells [7]): protected
HIF2α protein levels after prolyl hydroxylase inhibitor (HIF2α): increased
HIF1α protein levels after prolyl hydroxylase inhibitor (HIF1α): increased
Intracellular Fe, Cu, and Zn levels (HepG2 cells [9]): no effect
Intracellular manganese in cells not exposed to manganese (HepG2 cells [9]): did not impact
Intracellular manganese levels under elevated manganese exposure, versus controls (HepG2 cells [9]): significantly lower

CC(C)C[C@@H](C=O)NC(=O)[C@H](CC(C)C)NC(=O)[C@H](CC(C)C)NC(=O)OCc1ccccc1 [MG132, reference compound] (Cbz-Leu-Leu-Leu-aldehyde)
Prolyl hydroxylated HIF1α after proteasome inhibition [10]: accumulation

Cc1c2oc3c(C)ccc(C(=O)N[C@@H]4C(=O)N[C@H](C(C)C)C(=O)N5CCC[C@H]5C(=O)N(C)CC(=O)N(C)[C@@H](C(C)C)C(=O)O[C@@H]4C)c3nc-2c(C(=O)N[C@@H]2C(=O)N[C@H](C(C)C)C(=O)N3CCC[C@H]3C(=O)N(C)CC(=O)N(C)[C@@H](C(C)C)C(=O)O[C@@H]2C)c(N)c1=O [actinomycin D, reference compound] (I: T[dV]P[Sar][NMeV] / II: T[dV]P[Sar][NMeV]; ester I:1-I:C, II:1-II:C; linker I:N-II:N via Actinocin(9to1))
Effect of actinomycin D on increase in SLC30A10 mRNA after manganese exposure (SLC30A10 [2]): blocked
